Data taken from ChEMBL document CHEMBL1144896 (2003).

What was measured:
[1] = tested on: BJ; assay: pPCMV-SEAP (cytomegalovirus-SEAP) activity in immortalized hTERT-BJ1 at 2.0 uM concentration and level of cell viability determined in MTT assay; assay type: functional, Homo sapiens
[2] = tested on: BJ; assay: Compound was tested for cytomegalovirus or (pPCMV-SEAP) activity in immortalized hTERT-BJ1 at 220 uM concentration; assay type: functional, Homo sapiens
[3] = tested on: BJ; assay: Compound was tested for human telomerase reverse transcriptase-SEAP (hTERT-SEAP) activity in immortalized hTERT-BJI at 22 uM concentration; assay type: functional
[4] = tested on: BJ; assay: hTERT-SEAP (Human telomerase reverse transcriptase-SEAP) activity in immortalized hTERT-BJI at 22 uM concentration and level of cell viability determined in MTT assay; assay type: functional
[5] = tested on: BJ; assay: Compound was tested for cytomegalovirus or (pPCMV-SEAP) activity in immortalized hTERT-BJ1 at 2.0 uM concentration; assay type: functional, Homo sapiens
[6] = tested on: NCI-H1299; assay: hTERT-SEAP (Human telomerase reverse transcriptase-SEAP) activity in non-small cell lung cancer H1299 cell at 2.2 uM concentration and level of cell viability determined in MTT assay; assay type: functional
[7] = tested on: BJ; assay: Compound was tested for human telomerase reverse transcriptase-SEAP (hTERT-SEAP) activity in immortalized hTERT-BJI at 2.2 uM concentration; assay type: functional
[8] = tested on: NCI-H1299; assay: Compound was tested for human telomerase reverse transcriptase-SEAP (hTERT-SEAP) activity in non-small cell lung cancer H1299 cell at 2.2 uM concentration; assay type: functional
[9] = tested on: NCI-H1299; assay: hTERT-SEAP (Human telomerase reverse transcriptase-SEAP) activity in non-small cell lung cancer H1299 cell at 220.0 uM concentration and level of cell viability determined in MTT assay; assay type: functional
[10] = tested on: BJ; assay: Compound was tested for cytomegalovirus or (pPCMV-SEAP) activity in immortalized hTERT-BJ1 at 22 uM concentration; assay type: functional, Homo sapiens
[11] = tested on: BJ; assay: hTERT-SEAP (Human telomerase reverse transcriptase-SEAP) activity in immortalized hTERT-BJI at 220.0 uM concentration and level of cell viability determined in MTT assay; assay type: functional
[12] = tested on: BJ; assay: hTERT-SEAP (Human telomerase reverse transcriptase-SEAP) activity in immortalized hTERT-BJI at 2.2 uM concentration and level of cell viability determined in MTT assay; assay type: functional
[13] = tested on: NCI-H1299; assay: Compound was tested for human telomerase reverse transcriptase-SEAP (hTERT-SEAP) activity in non-small cell lung cancer H1299 cell at 22 uM concentration; assay type: functional
[14] = tested on: BJ; assay: Compound was tested for human telomerase reverse transcriptase-SEAP (hTERT-SEAP) activity in immortalized hTERT-BJI at 220.0 uM concentration; assay type: functional
[15] = tested on: BJ; assay: pPCMV-SEAP (cytomegalovirus-SEAP) activity in immortalized hTERT-BJ1 at 220 uM concentration and level of cell viability determined in MTT assay; assay type: functional, Homo sapiens
[16] = tested on: NCI-H1299; assay: Compound was tested for human telomerase reverse transcriptase-SEAP (hTERT-SEAP) activity in non-small cell lung cancer H1299 cell at 220.0 uM concentration; assay type: functional
[17] = tested on: BJ; assay: pPCMV-SEAP (cytomegalovirus-SEAP) activity in immortalized hTERT-BJ1 at 22 uM concentration and level of cell viability determined in MTT assay; assay type: functional, Homo sapiens
[18] = tested on: BJ; assay: hTERT-SEAP (Human telomerase reverse transcriptase-SEAP) activity in immortalized hTERT-BJI at 24 uM concentration and level of cell viability determined in MTT assay; assay type: functional
[19] = tested on: NCI-H1299; assay: Compound was tested for human telomerase reverse transcriptase-SEAP (hTERT-SEAP) activity in non-small cell lung cancer H1299 cell at 2.4 uM concentration; assay type: functional
[20] = tested on: NCI-H1299; assay: hTERT-SEAP (Human telomerase reverse transcriptase-SEAP) activity in non-small cell lung cancer H1299 cell at 24 uM concentration and level of cell viability determined in MTT assay; assay type: functional
[21] = tested on: BJ; assay: Compound was tested for human telomerase reverse transcriptase-SEAP (hTERT-SEAP) activity in immortalized hTERT-BJI at 2.4 uM concentration; assay type: functional
[22] = tested on: BJ; assay: Compound was tested for cytomegalovirus or (pPCMV-SEAP) activity in immortalized hTERT-BJ1 at 2.4 uM concentration; assay type: functional, Homo sapiens
[23] = tested on: BJ; assay: Compound was tested for human telomerase reverse transcriptase-SEAP (hTERT-SEAP) activity in immortalized hTERT-BJI at 240.0 uM concentration; assay type: functional
[24] = tested on: BJ; assay: pPCMV-SEAP (cytomegalovirus-SEAP) activity in immortalized hTERT-BJ1 at 2.4 uM concentration and level of cell viability determined in MTT assay; assay type: functional, Homo sapiens
[25] = tested on: NCI-H1299; assay: hTERT-SEAP (Human telomerase reverse transcriptase-SEAP) activity in non-small cell lung cancer H1299 cell at 2.4 uM concentration and level of cell viability determined in MTT assay; assay type: functional
[26] = tested on: BJ; assay: Compound was tested for cytomegalovirus or (pPCMV-SEAP) activity in immortalized hTERT-BJ1 at 240 uM concentration; assay type: functional, Homo sapiens
[27] = tested on: BJ; assay: pPCMV-SEAP (cytomegalovirus-SEAP) activity in immortalized hTERT-BJ1 at 24 uM concentration and level of cell viability determined in MTT assay; assay type: functional, Homo sapiens
[28] = tested on: BJ; assay: Compound was tested for human telomerase reverse transcriptase-SEAP (hTERT-SEAP) activity in immortalized hTERT-BJI at 24 uM concentration; assay type: functional
[29] = tested on: NCI-H1299; assay: hTERT-SEAP (Human telomerase reverse transcriptase-SEAP) activity in non-small cell lung cancer H1299 cell at 240.0 uM concentration and level of cell viability determined in MTT assay; assay type: functional
[30] = tested on: NCI-H1299; assay: Compound was tested for human telomerase reverse transcriptase-SEAP (hTERT-SEAP) activity in non-small cell lung cancer H1299 cell at 24 uM concentration; assay type: functional
[31] = tested on: BJ; assay: pPCMV-SEAP (cytomegalovirus-SEAP) activity in immortalized hTERT-BJ1 at 240 uM concentration and level of cell viability determined in MTT assay; assay type: functional, Homo sapiens
[32] = tested on: BJ; assay: hTERT-SEAP (Human telomerase reverse transcriptase-SEAP) activity in immortalized hTERT-BJI at 240.0 uM concentration and level of cell viability determined in MTT assay; assay type: functional
[33] = tested on: BJ; assay: Compound was tested for cytomegalovirus or (pPCMV-SEAP) activity in immortalized hTERT-BJ1 at 24 uM concentration; assay type: functional, Homo sapiens
[34] = tested on: NCI-H1299; assay: Compound was tested for human telomerase reverse transcriptase-SEAP (hTERT-SEAP) activity in non-small cell lung cancer H1299 cell at 240.0 uM concentration; assay type: functional
[35] = tested on: NCI-H1299; assay: Compound was tested for human telomerase reverse transcriptase-SEAP (hTERT-SEAP) activity in non-small cell lung cancer H1299 cell at 18 uM concentration; assay type: functional
[36] = tested on: BJ; assay: Compound was tested for cytomegalovirus or (pPCMV-SEAP) activity in immortalized hTERT-BJ1 at 180 uM concentration; assay type: functional, Homo sapiens
[37] = tested on: BJ; assay: Compound was tested for human telomerase reverse transcriptase-SEAP (hTERT-SEAP) activity in immortalized hTERT-BJI at 18 uM concentration; assay type: functional
[38] = tested on: BJ; assay: pPCMV-SEAP (cytomegalovirus-SEAP) activity in immortalized hTERT-BJ1 at 1.8 uM concentration and level of cell viability determined in MTT assay; assay type: functional, Homo sapiens
[39] = tested on: BJ; assay: hTERT-SEAP (Human telomerase reverse transcriptase-SEAP) activity in immortalized hTERT-BJI at 18 uM concentration and level of cell viability determined in MTT assay; assay type: functional
[40] = tested on: BJ; assay: pPCMV-SEAP (cytomegalovirus-SEAP) activity in immortalized hTERT-BJ1 at 180 uM concentration and level of cell viability determined in MTT assay; assay type: functional, Homo sapiens
[41] = tested on: BJ; assay: Compound was tested for cytomegalovirus or (pPCMV-SEAP) activity in immortalized hTERT-BJ1 at 1.8 uM concentration; assay type: functional, Homo sapiens
[42] = tested on: NCI-H1299; assay: hTERT-SEAP (Human telomerase reverse transcriptase-SEAP) activity in non-small cell lung cancer H1299 cell at 1.8 uM concentration and level of cell viability determined in MTT assay; assay type: functional
[43] = tested on: NCI-H1299; assay: hTERT-SEAP (Human telomerase reverse transcriptase-SEAP) activity in non-small cell lung cancer H1299 cell at 18 uM concentration and level of cell viability determined in MTT assay; assay type: functional
[44] = tested on: BJ; assay: hTERT-SEAP (Human telomerase reverse transcriptase-SEAP) activity in immortalized hTERT-BJI at 180.0 uM concentration and level of cell viability determined in MTT assay; assay type: functional
[45] = tested on: NCI-H1299; assay: hTERT-SEAP (Human telomerase reverse transcriptase-SEAP) activity in non-small cell lung cancer H1299 cell at 180.0 uM concentration and level of cell viability determined in MTT assay; assay type: functional
[46] = tested on: BJ; assay: Compound was tested for cytomegalovirus or (pPCMV-SEAP) activity in immortalized hTERT-BJ1 at 18 uM concentration; assay type: functional, Homo sapiens
[47] = tested on: NCI-H1299; assay: Compound was tested for human telomerase reverse transcriptase-SEAP (hTERT-SEAP) activity in non-small cell lung cancer H1299 cell at 1.8 uM concentration; assay type: functional
[48] = tested on: BJ; assay: Compound was tested for human telomerase reverse transcriptase-SEAP (hTERT-SEAP) activity in immortalized hTERT-BJI at 180.0 uM concentration; assay type: functional
[49] = tested on: BJ; assay: pPCMV-SEAP (cytomegalovirus-SEAP) activity in immortalized hTERT-BJ1 at 18 uM concentration and level of cell viability determined in MTT assay; assay type: functional, Homo sapiens
[50] = tested on: NCI-H1299; assay: Compound was tested for human telomerase reverse transcriptase-SEAP (hTERT-SEAP) activity in non-small cell lung cancer H1299 cell at 180.0 uM concentration; assay type: functional

Structure (SMILES): COc1ccc(CSc2cccc3c2C(=O)c2cccc(SCc4ccc(OC)cc4)c2C3=O)cc1
- Relative viability [1]: 116%
- Relative SEAP activity [2]: 100%
- Relative SEAP activity [3]: 141%
- Relative viability [4]: 98%
- Relative SEAP activity [5]: 103%
- Relative viability [6]: 89%
- Relative SEAP activity [7]: 142%
- Relative SEAP activity [8]: 92%
- Relative viability [9]: 42%
- Relative SEAP activity [10]: 102%
- Relative viability [11]: 62%
- Relative viability [12]: 119%
- Relative SEAP activity [13]: 96%
- Relative SEAP activity [14]: 118%
- Relative viability [15]: 52%
- Relative SEAP activity [16]: 88%
- Relative viability [17]: 67%

Structure (SMILES): CC(C)(C)C(=O)Oc1cccc2c1C(=O)c1cccc(OC(=O)C(C)(C)C)c1C2=O
- Relative viability [18]: 93%
- Relative SEAP activity [19]: 105%
- Relative viability [20]: 97%
- Relative SEAP activity [21]: 147%
- Relative SEAP activity [22]: 102%
- Relative SEAP activity [23]: 141%
- Relative viability [24]: 115%
- Relative viability [25]: 106%
- Relative SEAP activity [26]: 141%
- Relative viability [27]: 104%
- Relative SEAP activity [28]: 165%
- Relative viability [29]: 70%
- Relative SEAP activity [30]: 78%
- Relative viability [31]: 103%
- Relative viability [32]: 100%
- Relative SEAP activity [33]: 114%
- Relative SEAP activity [34]: 80%

Structure (SMILES): O=C(Oc1cccc2c1C(=O)c1cccc(OC(=O)c3ccc(Cl)cc3Cl)c1C2=O)c1ccc(Cl)cc1Cl
- Relative SEAP activity [35]: 102%
- Relative SEAP activity [36]: 121%
- Relative SEAP activity [37]: 150%
- Relative viability [38]: 105%
- Relative viability [39]: 102%
- Relative viability [40]: 108%
- Relative SEAP activity [41]: 99%
- Relative viability [42]: 108%
- Relative viability [43]: 103%
- Relative viability [44]: 96%
- Relative viability [45]: 77%
- Relative SEAP activity [46]: 111%
- Relative SEAP activity [47]: 100%
- Relative SEAP activity [48]: 160%
- Relative viability [49]: 105%
- Relative SEAP activity [50]: 96%
